This note sets out measurements from ChEMBL document CHEMBL3867480 (Bioorg Med Chem, 2016).

Converted amounts (≈) assume the structure as drawn. A value given as a limit tells only on which side of the number the result lay.

Chain of 72 kDa type IV collagenase (P08253 whole entry): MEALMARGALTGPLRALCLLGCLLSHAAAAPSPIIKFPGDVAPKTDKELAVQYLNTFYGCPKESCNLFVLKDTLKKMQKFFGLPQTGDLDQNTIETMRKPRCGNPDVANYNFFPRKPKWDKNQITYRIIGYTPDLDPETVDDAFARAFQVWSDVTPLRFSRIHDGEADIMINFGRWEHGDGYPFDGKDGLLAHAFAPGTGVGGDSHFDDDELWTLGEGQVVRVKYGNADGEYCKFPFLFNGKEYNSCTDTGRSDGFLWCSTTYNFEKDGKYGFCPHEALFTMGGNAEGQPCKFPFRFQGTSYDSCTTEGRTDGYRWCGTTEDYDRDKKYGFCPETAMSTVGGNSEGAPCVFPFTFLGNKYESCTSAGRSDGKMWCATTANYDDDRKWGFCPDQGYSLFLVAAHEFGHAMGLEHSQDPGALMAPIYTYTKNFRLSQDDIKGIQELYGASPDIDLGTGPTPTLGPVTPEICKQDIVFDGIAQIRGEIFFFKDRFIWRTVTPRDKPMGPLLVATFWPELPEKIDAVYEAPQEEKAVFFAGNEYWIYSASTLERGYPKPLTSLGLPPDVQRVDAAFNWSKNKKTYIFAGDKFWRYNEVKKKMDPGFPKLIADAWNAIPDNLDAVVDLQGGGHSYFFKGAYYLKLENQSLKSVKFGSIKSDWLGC
Chain of Neutrophil collagenase (P22894 whole entry): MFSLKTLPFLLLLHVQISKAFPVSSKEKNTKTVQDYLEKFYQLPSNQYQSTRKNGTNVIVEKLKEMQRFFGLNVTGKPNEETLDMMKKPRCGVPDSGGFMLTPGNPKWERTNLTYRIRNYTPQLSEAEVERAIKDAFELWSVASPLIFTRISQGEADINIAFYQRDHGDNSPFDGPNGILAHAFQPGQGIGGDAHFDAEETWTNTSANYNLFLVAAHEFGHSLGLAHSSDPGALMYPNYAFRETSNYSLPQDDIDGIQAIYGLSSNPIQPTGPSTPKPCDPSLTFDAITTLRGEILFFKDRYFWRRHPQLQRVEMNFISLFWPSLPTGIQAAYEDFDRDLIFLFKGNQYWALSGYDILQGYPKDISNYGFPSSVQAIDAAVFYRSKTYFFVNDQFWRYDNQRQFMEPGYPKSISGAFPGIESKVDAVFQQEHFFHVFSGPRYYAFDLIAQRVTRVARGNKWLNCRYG

One data set concerns the target 72 kDa type IV collagenase (Homo sapiens, UniProt P08253). Kind of data set: Inhibition of recombinant human […]-activated MMP2 using Cy3-PLGLK(Cy5Q)AR-NH2 as substrate measured after 40 mins by spectrofluorimetric method.
Conditions: not given
As for `O=C(NCc1cccc(N2CCN(C(=O)Cc3nnn[nH]3)CC2)c1)c1nc2ccccc2c(=O)[nH]1`, the IC50 is 0.16 µM.

As to `O=C(NCc1cccc(N2CCN(C(=O)Cc3c[nH]cn3)CC2)c1)c1nc2ccccc2c(=O)[nH]1`, the IC50 amounted to 0.12 µM.

As to `COc1cccc(CNC(=O)c2nc3scc(-c4cccc(Cl)c4)c3c(=O)[nH]2)c1`, the half-inhibitory concentration (IC50) turned out to be 2.6 µM.

For the compound `O=C(NCc1cccc(N2CCN(C(=O)Cc3cc(=O)[nH][nH]3)CC2)c1)c1nc2ccccc2c(=O)[nH]1`, the half-inhibitory concentration (IC50) is below 0.01 µM.

For `CC(=O)N(O)C(CS(=O)(=O)c1ccc(-c2cccc(CNC(=O)c3nc4ccccc4c(=O)[nH]3)c2)cc1)C(C)C` (stereo not given), the IC50 is 0.065 µM.

For `O=C(NCc1cccc(-c2ccc(CS(=O)(=O)Cc3n[nH]c(=O)[nH]3)cc2)c1)c1nc2scc(-c3cccc(Cl)c3)c2c(=O)[nH]1`, the IC50 was 0.086 µM.

Turning to `O=C(NCc1cccc(OCCCOc2nc[nH]n2)c1)c1nc2ccccc2c(=O)[nH]1`, the IC50 came out at 0.032 µM.

`O=C1NC(=O)C(CC(=O)N2CCN(c3cccc(CNC(=O)c4nc5ccccc5c(=O)[nH]4)c3)CC2)N1` (stereo not given): the IC50 was below 0.01 µM.

In the next data set the target is CYP3A4 (Homo sapiens, UniProt P08684). As to the kind of experiment: Inhibition of CYP3A4 (unknown origin) at 10 uM. The format is ADME.
Chain of CYP3A4 (P08684 whole entry): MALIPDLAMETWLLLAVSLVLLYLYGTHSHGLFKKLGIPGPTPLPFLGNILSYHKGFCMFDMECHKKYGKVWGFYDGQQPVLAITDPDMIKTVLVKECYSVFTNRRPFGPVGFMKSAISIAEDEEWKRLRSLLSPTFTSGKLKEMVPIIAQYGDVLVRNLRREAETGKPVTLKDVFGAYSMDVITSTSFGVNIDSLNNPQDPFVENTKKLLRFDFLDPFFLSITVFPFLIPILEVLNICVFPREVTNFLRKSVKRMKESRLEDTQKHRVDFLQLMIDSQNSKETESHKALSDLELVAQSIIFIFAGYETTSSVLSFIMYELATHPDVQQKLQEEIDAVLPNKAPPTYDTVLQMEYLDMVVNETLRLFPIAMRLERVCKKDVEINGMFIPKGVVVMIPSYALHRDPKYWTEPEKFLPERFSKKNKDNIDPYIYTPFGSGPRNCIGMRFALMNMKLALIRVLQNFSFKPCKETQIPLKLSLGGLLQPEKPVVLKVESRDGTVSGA
Conditions: not given
`CC(=O)N(O)C(CS(=O)(=O)c1ccc(-c2cccc(CNC(=O)c3nc4ccccc4c(=O)[nH]3)c2)cc1)C(C)C` (stereo not given) showed an inhibition at 10 µM of 99%.

For a further data set, the target named is Stromelysin-2 (Homo sapiens, UniProt P09238). Kind of data set: Inhibition of recombinant human […]-activated MMP10 using Cy3-PLGLK(Cy5Q)AR-NH2 as substrate measured after 40 mins by spectrofluorimetric method.
Chain of Stromelysin-2 (P09238 whole entry): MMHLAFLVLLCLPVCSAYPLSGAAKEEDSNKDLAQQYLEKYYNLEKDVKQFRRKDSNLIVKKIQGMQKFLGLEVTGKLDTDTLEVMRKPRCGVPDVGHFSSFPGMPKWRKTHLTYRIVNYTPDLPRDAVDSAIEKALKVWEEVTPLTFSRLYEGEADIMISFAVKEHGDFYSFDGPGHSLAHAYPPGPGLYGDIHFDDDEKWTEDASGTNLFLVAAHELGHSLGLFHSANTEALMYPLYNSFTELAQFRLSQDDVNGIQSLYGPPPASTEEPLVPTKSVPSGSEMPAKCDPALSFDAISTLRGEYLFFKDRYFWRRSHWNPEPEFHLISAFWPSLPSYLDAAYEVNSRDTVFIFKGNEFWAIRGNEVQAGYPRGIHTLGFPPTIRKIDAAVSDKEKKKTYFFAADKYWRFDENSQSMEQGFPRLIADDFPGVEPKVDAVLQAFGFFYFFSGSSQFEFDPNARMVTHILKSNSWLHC
Conditions: not given
For `O=C(NCc1cccc(N2CCN(C(=O)Cc3nnn[nH]3)CC2)c1)c1nc2ccccc2c(=O)[nH]1`, the IC50 was 0.64 µM.

Take `O=C(NCc1cccc(N2CCN(C(=O)Cc3c[nH]cn3)CC2)c1)c1nc2ccccc2c(=O)[nH]1`: the IC50 is 0.46 µM.

`COc1cccc(CNC(=O)c2nc3scc(-c4cccc(Cl)c4)c3c(=O)[nH]2)c1`: the IC50 amounted to 6.3 µM.

With `O=C(NCc1cccc(N2CCN(C(=O)Cc3cc(=O)[nH][nH]3)CC2)c1)c1nc2ccccc2c(=O)[nH]1`, the 50% inhibitory concentration (IC50) is below 0.01 µM.

Regarding `CC(=O)N(O)C(CS(=O)(=O)c1ccc(-c2cccc(CNC(=O)c3nc4ccccc4c(=O)[nH]3)c2)cc1)C(C)C` (stereo not given), the IC50 was 0.064 µM.

Consider `O=C(NCc1cccc(-c2ccc(CS(=O)(=O)Cc3n[nH]c(=O)[nH]3)cc2)c1)c1nc2scc(-c3cccc(Cl)c3)c2c(=O)[nH]1`, for which the IC50 worked out at 0.034 µM.

On to `O=C(NCc1cccc(OCCCOc2nc[nH]n2)c1)c1nc2ccccc2c(=O)[nH]1`, for which the IC50 is 0.22 µM.

In the case of `O=C1NC(=O)C(CC(=O)N2CCN(c3cccc(CNC(=O)c4nc5ccccc5c(=O)[nH]4)c3)CC2)N1` (stereo not given), the IC50 is below 0.01 µM.

System in another data set: not listed separately
Kind of data set: Solubility of the compound at pH 6.8. In kind it is physicochemical. The conditions noted are these: buffer.
`CC(=O)N(O)C(CS(=O)(=O)c1ccc(-c2cccc(CNC(=O)c3nc4ccccc4c(=O)[nH]3)c2)cc1)C(C)C` (stereo not given): the solubility worked out at 0.93 µg/mL (≈ 1.65 µM).

System in a further data set: not listed separately
As to the kind of experiment: Permeability of the compound at pH 7.4 by PAMPA assay. The settings on record: read-out: permeability. In kind it is ADME.
Consider `CC(=O)N(O)C(CS(=O)(=O)c1ccc(-c2cccc(CNC(=O)c3nc4ccccc4c(=O)[nH]3)c2)cc1)C(C)C` (stereo not given), for which the Papp was 45.2 ×10⁻⁶ cm/s.

The next data set addresses Collagenase 3 (Homo sapiens, UniProt P45452).
Conditions: not given
Turning to `O=C(NCc1cccc(N2CCN(C(=O)Cc3nnn[nH]3)CC2)c1)c1nc2ccccc2c(=O)[nH]1`, it took 0.0015 µM to reach half-maximal inhibition (IC50).

With `O=C(NCc1cccc(N2CCN(C(=O)Cc3c[nH]cn3)CC2)c1)c1nc2ccccc2c(=O)[nH]1`, the IC50 is 0.0017 µM.

As for `COc1cccc(CNC(=O)c2nc3scc(-c4cccc(Cl)c4)c3c(=O)[nH]2)c1`, the IC50 was determined as 0.00012 µM.

`O=C(NCc1cccc(N2CCN(C(=O)Cc3cc(=O)[nH][nH]3)CC2)c1)c1nc2ccccc2c(=O)[nH]1` yielded an IC50 of 0.00036 µM.

`CC(=O)N(O)C(CS(=O)(=O)c1ccc(-c2cccc(CNC(=O)c3nc4ccccc4c(=O)[nH]3)c2)cc1)C(C)C` (stereo not given) gave an IC50 of 0.0003 µM.

`O=C(NCc1cccc(-c2ccc(CS(=O)(=O)Cc3n[nH]c(=O)[nH]3)cc2)c1)c1nc2scc(-c3cccc(Cl)c3)c2c(=O)[nH]1` had an IC50 of 0.00038 µM.

The compound `O=C(NCc1cccc(OCCCOc2nc[nH]n2)c1)c1nc2ccccc2c(=O)[nH]1` registered an IC50 of 0.00059 µM.

In turn, `O=C1NC(=O)C(CC(=O)N2CCN(c3cccc(CNC(=O)c4nc5ccccc5c(=O)[nH]4)c3)CC2)N1` (stereo not given) came in with an IC50 of 0.00019 µM.

`COc1cccc(CNC(=O)c2nc3ccccc3c(=O)[nH]2)c1`: the 50% inhibitory concentration (IC50) lay in the range of 0.0056 to 0.012 µM.

System in the next data set: not listed separately
Kind of data set: Clearance in rat liver microsomes. In kind it is ADME. The settings on record: read-out: CLH.
With `CC(=O)N(O)C(CS(=O)(=O)c1ccc(-c2cccc(CNC(=O)c3nc4ccccc4c(=O)[nH]3)c2)cc1)C(C)C` (stereo not given), the microsomal CLint was determined as 250 µL/min/mg.

Another data set has as its target Neutrophil collagenase (Homo sapiens, UniProt P22894). Kind of data set: Inhibition of recombinant human […]-activated MMP8 using Cy3-PLGLK(Cy5Q)AR-NH2 as substrate measured after 40 mins by spectrofluorimetric method.
Conditions: not given
Regarding `O=C(NCc1cccc(N2CCN(C(=O)Cc3nnn[nH]3)CC2)c1)c1nc2ccccc2c(=O)[nH]1`, the 50% inhibitory concentration (IC50) came to 0.032 µM.

Regarding `O=C(NCc1cccc(N2CCN(C(=O)Cc3c[nH]cn3)CC2)c1)c1nc2ccccc2c(=O)[nH]1`, the IC50 worked out at 0.045 µM.

On to `COc1cccc(CNC(=O)c2nc3scc(-c4cccc(Cl)c4)c3c(=O)[nH]2)c1`, for which the IC50 was above 10 µM.

With `O=C(NCc1cccc(N2CCN(C(=O)Cc3cc(=O)[nH][nH]3)CC2)c1)c1nc2ccccc2c(=O)[nH]1`, the IC50 was below 0.01 µM.

For `CC(=O)N(O)C(CS(=O)(=O)c1ccc(-c2cccc(CNC(=O)c3nc4ccccc4c(=O)[nH]3)c2)cc1)C(C)C` (stereo not given), the IC50 came to 0.11 µM.

For the compound `O=C(NCc1cccc(-c2ccc(CS(=O)(=O)Cc3n[nH]c(=O)[nH]3)cc2)c1)c1nc2scc(-c3cccc(Cl)c3)c2c(=O)[nH]1`, the IC50 stood at 1 µM.

With `O=C(NCc1cccc(OCCCOc2nc[nH]n2)c1)c1nc2ccccc2c(=O)[nH]1`, the IC50 turned out to be 0.022 µM.

For the compound `O=C1NC(=O)C(CC(=O)N2CCN(c3cccc(CNC(=O)c4nc5ccccc5c(=O)[nH]4)c3)CC2)N1` (stereo not given), the IC50 was below 0.01 µM.

System in another data set: not listed separately
Kind of data set: Oral bioavailability in rat at 1 mg/kg. The conditions noted are these: in vivo. In kind it is ADME, organism-based.
On to `CC(=O)N(O)C(CS(=O)(=O)c1ccc(-c2cccc(CNC(=O)c3nc4ccccc4c(=O)[nH]3)c2)cc1)C(C)C` (stereo not given), for which the bioavailability was below 1%.

System in the next data set: not listed separately
As to the kind of experiment: Clearance in human liver microsomes. In kind it is ADME. The settings on record: read-out: CLH.
Take `CC(=O)N(O)C(CS(=O)(=O)c1ccc(-c2cccc(CNC(=O)c3nc4ccccc4c(=O)[nH]3)c2)cc1)C(C)C` (stereo not given): the microsomal CLint is 250 µL/min/mg.

System in a further data set: not listed separately
Kind of data set: Clearance in rat at 0.1 mg/kg, iv or 1 mg/kg, po. In kind it is ADME, organism-based. The settings on record: in vivo.
For `CC(=O)N(O)C(CS(=O)(=O)c1ccc(-c2cccc(CNC(=O)c3nc4ccccc4c(=O)[nH]3)c2)cc1)C(C)C` (stereo not given), the clearance is below 1 mL/h/kg.

In general, IC50 refers to the point on the concentration scale where inhibition reaches its midpoint. What is called inhibition is the change of the read-out against control, counted positive when it falls. A lower inhibition goes with a response near the control. What is called solubility is the concentration that dissolves in the medium under given conditions. As usually defined, the bioavailability is the share of a dose that reaches the circulation, judged against a reference dose that is usually intravenous.
